Assay results taken from ChEMBL document CHEMBL6078704, “Redesigning Berberines and Sanguinarines to Target Soluble Epoxide Hydrolase for Enhanced Anti-Inflammatory Efficacy” (J Med Chem, 2024).
Calls of active or inactive are those of the source. The calls are words filed in the database; no cut-off is given here.

Legend:
[1] = Acute toxicity in BALB/c mouse assessed as pathological changes in liver tissue by measuring hemorrhage at 100 mg/kg, po single dose measured for 24 hrs; type: organism-based; conditions: in vivo
[2] = Acute toxicity in BALB/c mouse assessed as pathological changes in kidney tissue by measuring necrosis at 100 mg/kg, po single dose measured for 24 hrs; type: organism-based; conditions: in vivo
[3] = AUC (0 to 24 hrs) in Sprague-Dawley rat at 20 mg/kg, po measured up to 24 hrs; type: ADME, organism-based; conditions: in vivo
[4] = Acute toxicity in BALB/c mouse assessed as pathological changes in liver tissue by measuring necrosis at 100 mg/kg, po single dose measured for 24 hrs; type: organism-based; conditions: in vivo
[5] = Acute toxicity in male BALB/c mouse assessed as physiological changes at 100 mg/kg, po single dose measured for 24 hrs; type: organism-based; conditions: in vivo
[6] = test system: Mus musculus; test: Antiinflammatory activity against cerulein-induced acute pancreatitis in CD1 mouse assessed as increase in plasma 14,15-EET/DHET ratio at 20 mg/kg, ip pretreated with cerulein followed by compound injection on 30 and 150 mins and measured 6 hrs post cerulein treatment relative to model group; type: functional; conditions: time 30-360 min
[7] = Clearance in Sprague-Dawley rat at 5 mg/kg, iv measured up to 24 hrs; type: ADME, organism-based; conditions: in vivo
[8] = test system: Staphylococcus aureus; test: Antimicrobial activity against Staphylococcus aureus ATCC 29213 by microbroth dilution method; type: functional
[9] = Tmax in Sprague-Dawley rat at 5 mg/kg, iv measured up to 24 hrs; type: ADME, organism-based; conditions: in vivo
[10] = test system: HEK-293T; test: Cytotoxicity against human 293T cells assessed as cell viability at 0.5 to 5 uM measured after 48 hrs by CCK-8 assay; type: toxicity, cell-based; conditions: dose 0.5-5 µM
[11] = Acute toxicity in female BALB/c mouse assessed as physiological changes at 100 mg/kg, po single dose measured for 24 hrs; type: organism-based; conditions: in vivo
[12] = Half life in Sprague-Dawley rat at 5 mg/kg, iv measured up to 24 hrs; type: ADME, organism-based; conditions: in vivo
[13] = AUC (0 to infinity) in Sprague-Dawley rat at 20 mg/kg, po measured up to 24 hrs; type: ADME, organism-based; conditions: in vivo
[14] = test system: HepG2; test: Cytotoxicity against human HepG2 cells assessed as cell viability at 0.5 to 5 uM measured after 48 hrs by CCK-8 assay; type: toxicity, cell-based; conditions: hepg2, 48 h, dose 0.5-5 µM
[15] = Clearance in Sprague-Dawley rat at 20 mg/kg, po measured up to 24 hrs; type: ADME, organism-based; conditions: in vivo
[16] = Acute toxicity in BALB/c mouse assessed as pathological changes in kidney tissue by measuring hemorrhage at 100 mg/kg, po single dose measured for 24 hrs; type: organism-based; conditions: in vivo
[17] = test system: Mus musculus; test: Antiinflammatory activity against cerulein-induced acute pancreatitis in CD1 mouse assessed as increase in plasma 8,9-EET/DHET ratio at 20 mg/kg, ip pretreated with cerulein followed by compound injection on 30 and 150 mins and measured 6 hrs post cerulein treatment relative to model group; type: functional; conditions: time 30-360 min
[18] = test system: Mus musculus; test: (§1) Anti-inflammatory activity in cerulein-induced acute pancreatitis in CD1 mouse model assessed as decrease in plasma TNFalpha level at 20 mg/kg, ip administered 30 and 150 mins post-cerulein treatment measured after 6 hrs post-cerulein treatment by ELISA; type: functional, organism-based
[19] = Acute toxicity in BALB/c mouse assessed as pathological changes in liver tissue by measuring inflammation at 100 mg/kg, po single dose measured for 24 hrs; type: organism-based; conditions: in vivo
[20] = test system: Mus musculus; test: Antiinflammatory activity against cerulein-induced acute pancreatitis in CD1 mouse assessed as increase in pancreatic 14,15-EET/DHET ratio at 20 mg/kg, ip pretreated with cerulein followed by compound injection on 30 and 150 mins and measured 6 hrs post cerulein treatment relative to model group; type: functional; conditions: time 30-360 min
[21] = Volume of distribution (Vz) in Sprague-Dawley rat at 20 mg/kg, po measured up to 24 hrs; type: ADME, organism-based; conditions: in vivo
[22] = Tmax in Sprague-Dawley rat at 20 mg/kg, po measured up to 24 hrs; type: ADME, organism-based; conditions: in vivo
[23] = test system: Mus musculus; test: Antiinflammatory activity against cerulein-induced acute pancreatitis in CD1 mouse assessed as increase in pancreatic 8,9-EET/DHET ratio at 20 mg/kg, ip pretreated with cerulein followed by compound injection on 30 and 150 mins and measured 6 hrs post cerulein treatment relative to model group; type: functional; conditions: time 30-360 min
[24] = test system: Mus musculus; test: Anti-inflammatory activity in cerulein-induced acute pancreatitis in CD1 mouse model assessed as decrease in plasma IL-6 level at 20 mg/kg, ip administered 30 and 150 mins post-cerulein treatment measured after 6 hrs post-cerulein treatment by ELISA; type: functional, organism-based
[25] = test system: Mus musculus; test: as §1, with “cerulein-induced pancreatitis by measuring pancreatic histopathology” for “plasma TNFalpha level”, “H and E staining based analysis” for “ELISA”; type: functional, organism-based; conditions: time 30-360 min
[26] = Oral bioavailability in Sprague-Dawley rat at 20 mg/kg measured up to 24 hrs; type: ADME, organism-based; conditions: in vivo
[27] = test system: Mus musculus; test: In vivo inhibition sEH activity in cerulein-induced acute pancreatitis in CD1 mouse model assessed as enzyme activity in pancreatic homogenate at 20 mg/kg, ip administered 30 and 150 mins post-cerulein treatment measured after 6 hrs post-cerulein treatment; type: functional, organism-based; conditions: time 30-360 min
[28] = AUC (0 to infinity) in Sprague-Dawley rat at 5 mg/kg, iv measured up to 24 hrs; type: ADME, organism-based; conditions: in vivo
[29] = Cmax in Sprague-Dawley rat at 20 mg/kg, po measured up to 24 hrs; type: ADME, organism-based; conditions: in vivo
[30] = Acute toxicity in BALB/c mouse assessed as pathological changes in kidney tissue by measuring inflammation at 100 mg/kg, po single dose measured for 24 hrs; type: organism-based; conditions: in vivo
[31] = Half life in Sprague-Dawley rat at 20 mg/kg, po measured up to 24 hrs; type: ADME, organism-based; conditions: in vivo
[32] = AUC (0 to 24 hrs) in Sprague-Dawley rat at 5 mg/kg, iv measured up to 24 hrs; type: ADME, organism-based; conditions: in vivo
[33] = test system: Staphylococcus aureus; test: Antimicrobial activity against methicillin-resistant Staphylococcus aureus 19B120 by microbroth dilution method; type: functional
[34] = Volume of distribution (Vz) in Sprague-Dawley rat at 5 mg/kg, iv measured up to 24 hrs; type: ADME, organism-based; conditions: in vivo, read-out: Vz
[35] = Cmax in Sprague-Dawley rat at 5 mg/kg, iv measured up to 24 hrs; type: ADME, organism-based; conditions: in vivo
[36] = test system: Mus musculus; test: Anti-inflammatory activity in carrageen-induced paw edema BALB/c mouse model assessed as inhibition of soft tissue edema and inflammation measured immediately at 20 mg/kg, po measured at 3 hrs; type: functional

## COc1cc2c(cc1OC)[C@H]1Cc3ccc(NC(=O)NCc4ccc(OC(F)(F)F)cc4)cc3CN1CC2
[1]
  Activity: Non-toxic
[2]
  Activity: Non-toxic
[3]
  AUC(0-t) at 24 h: 99500 ng·h/mL
[4]
  Activity: Non-toxic
[5]
  Activity: Non-toxic
[6]
  fold change (FC): 15.4
[7]
  clearance: 2.85 mL/min/kg
[8]
  MIC: > 64 µg/mL
[9]
  Tmax: 4.8 min
[10]
  Activity: Non-toxic
[11]
  Activity: Non-toxic
[12]
  half-life: 6.1 h
[13]
  AUC(0-inf): 110000 ng·h/mL
[14]
  Activity: Non-toxic
[15]
  CL/F: 3.03 mL/min/kg
[16]
  Activity: Non-toxic
[17]
  fold change (FC): 3.8
[18]
  Activity: Active
[19]
  Activity: Non-toxic
[20]
  fold change (FC): 26
[21]
  Vz: 1.889 L/kg
[22]
  Tmax: 1.67 h
[23]
  fold change (FC): 5.4
[24]
  Activity: Active
[25]
  Activity: Active
[26]
  bioavailability: 89.3%
[27]
  Activity: Active
[28]
  AUC(0-inf): 29600 ng·h/mL
[29]
  Cmax: 10300 ng/mL
[30]
  Activity: Non-toxic
[31]
  half-life: 7.2 h
[32]
  AUC(0-t) at 24 h: 27800 ng·h/mL
[33]
  MIC: > 64 µg/mL
[34]
  Vd: 1.49 L/kg
[35]
  Cmax: 4860 ng/mL
[36]
  inhibition in vivo at 20 mg/kg: 33%
